# According to patent US8722849B2, “Polypeptides” (Novo Nordisk A/S, priority 2011, dated 2014):
# pEC50: −log10 of the molar value. Like-named read-outs stand apart in the source and are kept apart here. Starred links: 1 amine or outer side, 2 acyl side, 3 side chain; linkers in the order of their positions; H or OH if unused. Positions of bridges follow the written chain, without caps; N, C: chain ends. Residues, ends and D or L forms follow the SMILES beside them. *: point of attachment. C20 diacid = O=C(O)CCCCCCCCCCCCCCCCCCC(=O)*; γGlu = O=C(O)[C@H](CCC(=O)[*:2])N[*:1]
# Columns and labels:
# [1] = target: T1, rat amylin 3(a) receptor (rat calcitonin(a) receptor + rat RAMP3) (Rattus norvegicus, UniProt P32214+Q9JJ73); assay: Assay (II)b functional cAMP FlashPlate assay, rat amylin receptor; type: cell-based; conditions: Table 11
# T1 construct: expressed in transfected cells; host or cells: BHK tk'ts 13
# T1 sequence (P32214 25-479 isoform P32214-2 limits assumed): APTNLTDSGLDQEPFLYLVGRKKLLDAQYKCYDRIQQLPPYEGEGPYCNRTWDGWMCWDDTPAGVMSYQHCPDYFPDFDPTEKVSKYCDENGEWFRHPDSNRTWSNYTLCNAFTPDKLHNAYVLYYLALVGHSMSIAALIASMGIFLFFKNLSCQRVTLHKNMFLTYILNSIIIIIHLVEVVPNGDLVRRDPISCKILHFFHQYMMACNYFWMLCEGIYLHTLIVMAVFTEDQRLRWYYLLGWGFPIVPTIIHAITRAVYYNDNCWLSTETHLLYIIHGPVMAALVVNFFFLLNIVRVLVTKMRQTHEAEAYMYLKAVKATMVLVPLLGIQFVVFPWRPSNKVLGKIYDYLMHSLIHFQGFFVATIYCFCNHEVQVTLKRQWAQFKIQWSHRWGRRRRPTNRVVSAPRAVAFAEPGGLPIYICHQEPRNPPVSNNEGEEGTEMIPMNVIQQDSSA
# T1 sequence (Q9JJ73 23-147 partner): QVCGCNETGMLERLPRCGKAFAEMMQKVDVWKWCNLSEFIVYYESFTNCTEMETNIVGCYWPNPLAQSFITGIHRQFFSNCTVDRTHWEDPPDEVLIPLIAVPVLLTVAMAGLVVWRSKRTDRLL
# Outline: (§1)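 BHK tk'ts 13 cells transiently transfected with rat calcitonin(a) receptor, alone or with rat RAMP3 (amylin 3(a)), were stimulated 24 hours later with sample for 30 min in buffer containing IBMX. cAMP measured by competitive radioactive FlashPlate assay, scintillation read after 3 h detection incubation.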
# [2] = target: T2, human calcitonin receptor (Homo sapiens, UniProt P30988); assay: Assay (II)a functional CRE-luciferase assay, human calcitonin receptor; type: cell-based; conditions: Table 7; human calcitonin (CTa) receptor
# T2 construct: expressed in transfected cells; host or cells: BHK570
# T2 sequence (P30988 25-474): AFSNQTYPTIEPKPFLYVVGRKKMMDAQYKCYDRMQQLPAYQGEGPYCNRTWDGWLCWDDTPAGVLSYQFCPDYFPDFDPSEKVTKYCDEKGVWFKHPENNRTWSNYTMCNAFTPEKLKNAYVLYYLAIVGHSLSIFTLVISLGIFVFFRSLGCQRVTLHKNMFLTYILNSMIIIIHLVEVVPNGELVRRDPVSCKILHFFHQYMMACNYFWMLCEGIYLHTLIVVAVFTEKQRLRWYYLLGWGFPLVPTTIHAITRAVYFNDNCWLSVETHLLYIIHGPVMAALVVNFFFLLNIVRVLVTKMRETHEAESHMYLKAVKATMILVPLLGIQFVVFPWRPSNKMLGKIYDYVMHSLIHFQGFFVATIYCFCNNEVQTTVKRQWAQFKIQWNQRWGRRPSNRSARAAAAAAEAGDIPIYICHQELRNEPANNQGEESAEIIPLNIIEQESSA
# [3] = Assay (IV) determination of solubility; type: physicochemical
# Outline: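 Polypeptide in water (~500 nmol/ml) mixed 1:1 with 100 mM glycylglycine (pH 3.0–5.0) or bistrispropane (pH 6.0–8.0) buffers. Held 18 hours at room temperature, then centrifuged. Polypeptide remaining in solution quantified by HPLC.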
# [4] = target: T3, human amylin receptor (amylin 3(a) receptor: human calcitonin receptor + RAMP-3) (Homo sapiens, UniProt O60896+P30988); assay: Assay (II)a functional CRE-luciferase assay, human amylin receptor; type: cell-based; conditions: Table 2; BHK amylin 3(a)-receptor/CRE-luc cells
# T3 construct: expressed in transfected cells; host or cells: BHK570
# T3 sequence (P30988 25-474): T2 sequence (P30988 25-474)
# T3 sequence (O60896 24-148 partner): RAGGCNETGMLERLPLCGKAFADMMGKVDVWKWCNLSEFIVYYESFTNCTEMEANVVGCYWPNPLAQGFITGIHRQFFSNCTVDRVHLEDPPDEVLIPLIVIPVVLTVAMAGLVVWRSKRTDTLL
# [5] = target: T4, rat calcitonin (a) receptor (Rattus norvegicus, UniProt P32214); assay: Assay (II)b functional cAMP FlashPlate assay, rat calcitonin receptor; type: cell-based; conditions: Table 11; read-out: CTa receptor rat EC50
# T4 construct: expressed in transfected cells; host or cells: BHK tk'ts 13
# T4 sequence (P32214 25-479 isoform P32214-2 limits assumed): T1 sequence (P32214 25-479 isoform P32214-2 limits assumed)
# Outline: as §1
# [6] = bistrispropane buffer, pH 6, pH 6.0, read-out: Solubility pH 6.0
# [7] = bistrispropane buffer, pH 6.5, pH 6.5, read-out: Solubility pH 6.5
# [8] = bistrispropane buffer, pH 7, pH 7.0, read-out: Solubility pH 7.0
# [9] = bistrispropane buffer, pH 7.5, pH 7.5, read-out: Solubility pH 7.5
# [10] = bistrispropane buffer, pH 8, pH 8.0, read-out: Solubility pH 8.0
# [11] = glycylglycine buffer, pH 3, pH 3.0, read-out: Solubility pH 3.0
# [12] = glycylglycine buffer, pH 4, pH 4.0, 18 hours at room temperature, Table 2, read-out: Solubility pH 4.0
# [13] = glycylglycine buffer, pH 4, pH 4.0, read-out: Solubility pH 4.0
# [14] = glycylglycine buffer, pH 5, pH 5.0, read-out: Solubility pH 5.0
SMILES,pEC50 [1],pEC50 [2],"solubility at 18 h [3, 6] [µM]","solubility at 18 h [3, 7] [µM]","solubility at 18 h ([3]; bistrispropane buffer, pH 7, pH 7.0, 18 hours at room temperature, Table 3, read-out: Solubility pH 7.0) [µM]","solubility at 18 h ([3]; bistrispropane buffer, pH 7, pH 7.0, Table 8, read-out: Solubility pH 7.0) [µM]","solubility at 18 h [3, 8] [µM]","solubility at 18 h [3, 9] [µM]","solubility at 18 h [3, 10] [µM]","solubility at 18 h [3, 11] [µM]","solubility at 18 h [3, 12] [µM]","solubility at 18 h [3, 13] [µM]","solubility at 18 h [3, 14] [µM]",pEC50 [4],pEC50 [5]
"CC[C@H](C)[C@H](NC(=O)[C@@H]1CCCN1C(=O)CNC(=O)[C@H](Cc1ccccc1)NC(=O)[C@H](CC(N)=O)NC(=O)[C@H](CC(N)=O)NC(=O)[C@H](CO)NC(=O)[C@H](CO)NC(=O)[C@H](Cc1c[nH]cn1)NC(=O)[C@H](Cc1cnc[nH]1)NC(=O)[C@H](CC(C)C)NC(=O)[C@H](Cc1ccccc1)NC(=O)[C@H](CCC(=O)O)NC(=O)[C@H](C)NC(=O)[C@H](CC(C)C)NC(=O)[C@H](CCCNC(=N)N)NC(=O)[C@H](CCC(N)=O)NC(=O)[C@@H](NC(=O)[C@H](C)NC(=O)[C@@H]1CSSC[C@H](NC(=O)[C@H](Cc2cnc[nH]2)NC(=O)CC[C@H](NC(=O)CCCCCCCCCCCCCCCCCCC(=O)O)C(=O)O)C(=O)N[C@@H](CC(N)=O)C(=O)N[C@@H]([C@@H](C)O)C(=O)N[C@@H](C)C(=O)N[C@@H]([C@@H](C)O)C(=O)N1)[C@@H](C)O)C(=O)N[C@@H](CC(C)C)C(=O)N1CCC[C@H]1C(=O)N1CCC[C@H]1C(=O)N[C@H](C(=O)N[C@@H](CC(N)=O)C(=O)N[C@H](C(=O)NCC(=O)N[C@@H](CO)C(=O)N[C@@H](CC(N)=O)C(=O)N[C@H](C(=O)N1CCC[C@H]1C(N)=O)[C@@H](C)O)C(C)C)[C@@H](C)O [Example 84, N-alpha-[(S)-4-Carboxy-4-(19-carboxynonadecanoylamino)butyryl]-[His1,Glu14,His17,Pro37]-pramlintide] ({C20 diacid-γGlu}-HCNTATCATQRLAEFLHHSSNNFGPILPPTNVGSNTP-NH2; disulfide 2-7)",9.92,10.17,> 200,> 200,> 200,> 200,> 200,> 200,> 200,> 200,> 200,> 200,> 200,10.03,9.96
"CC[C@H](C)[C@H](NC(=O)[C@@H]1CCCN1C(=O)CNC(=O)[C@H](Cc1ccccc1)NC(=O)[C@H](CC(N)=O)NC(=O)[C@H](CC(N)=O)NC(=O)[C@H](CO)NC(=O)[C@H](CO)NC(=O)[C@H](Cc1cnc[nH]1)NC(=O)[C@H](Cc1cnc[nH]1)NC(=O)[C@H](CC(C)C)NC(=O)[C@H](Cc1ccccc1)NC(=O)[C@H](CCC(=O)O)NC(=O)[C@H](C)NC(=O)[C@H](CC(C)C)NC(=O)[C@H](CCCNC(=N)N)NC(=O)[C@H](CCC(N)=O)NC(=O)[C@@H](NC(=O)[C@H](C)NC(=O)[C@@H]1CSSC[C@H](NC(=O)[C@H](Cc2cnc[nH]2)NC(=O)[C@H](Cc2cnc[nH]2)NC(=O)CC[C@H](NC(=O)CCCCCCCCCCCCCCCCCCC(=O)O)C(=O)O)C(=O)N[C@@H](CC(N)=O)C(=O)N[C@@H]([C@@H](C)O)C(=O)N[C@@H](C)C(=O)N[C@@H]([C@@H](C)O)C(=O)N1)[C@@H](C)O)C(=O)N[C@@H](CC(C)C)C(=O)N1CCC[C@H]1C(=O)N1CCC[C@H]1C(=O)N[C@H](C(=O)N[C@@H](CC(N)=O)C(=O)N[C@H](C(=O)NCC(=O)N[C@@H](CO)C(=O)N[C@@H](CC(N)=O)C(=O)N[C@H](C(=O)N[C@@H](Cc1ccc(O)cc1)C(N)=O)[C@@H](C)O)C(C)C)[C@@H](C)O [Example 17, N-alpha-[(S)-4-Carboxy-4-(19-carboxynonadecanoylamino)butyryl]-His-[His1,Glu14,His17]-pramlintide] ({C20 diacid-γGlu}-HHCNTATCATQRLAEFLHHSSNNFGPILPPTNVGSNTY-NH2; disulfide 3-8)",9.83,9.78,160,66,,,88,> 200,> 200,> 200,> 200,> 200,> 200,9.95,9.66
